In one test the test system is Pseudomonas aeruginosa. Briefly: Antibacterial activity against Pseudomonas aeruginosa assessed as inhibition of bacterial growth at 50 uM by microdilution assay relative to control. The format is functional. (In general: Broth dilution looks for growth in wells or tubes with falling amounts of substance.)
The next test deals with Klebsiella pneumoniae. Nature of the test: Antibacterial activity against Klebsiella pneumoniae assessed as inhibition of bacterial growth at 50 uM by microdilution assay relative to control. It is filed as functional.
Test [1] concerns Staphylococcus aureus. Briefly: Antibacterial activity against methicillin-resistant Staphylococcus aureus assessed as inhibition of bacterial growth at 50 uM by microdilution assay relative to control. It is filed as functional.
Test [2] has as its system Staphylococcus aureus. Nature of the test: Antibacterial activity against methicillin-resistant Staphylococcus aureus assessed as inhibition of bacterial growth by microdilution assay. It is filed as functional, organism-based.

In the case of `COc1ccc(NC2CCN(C(=O)/C=C/c3ccc(O)c(OC)c3)CC2)cc1`, the inhibition – broadly, the relative decrease from the control value, in per cent – at 50 µM is 0% with Pseudomonas aeruginosa, 0% in the test on Klebsiella pneumoniae and 4% with Staphylococcus aureus [1].
On to `COc1cc(/C=C/C(=O)N2CCC(Nc3ccc(Cl)cc3)CC2)ccc1O`, for which the inhibition at 50 µM in the test on Pseudomonas aeruginosa was determined as 18%; with Klebsiella pneumoniae, 37%; with Staphylococcus aureus [1] it was 0%.
As for `O=C(/C=C/c1ccc2c(c1)OCO2)N1CCC(Nc2ccc(Cl)cc2)CC1`, the inhibition at 50 µM turned out to be 13% in the test with Pseudomonas aeruginosa, 32% in the test with Klebsiella pneumoniae and 20% in the test on Staphylococcus aureus [1].
The matching figures for `O=C(/C=C/c1ccccc1)N1CCC(Nc2ccccc2)CC1`: 0%, 0% and 36%.
On to `COc1cc(/C=C/C(=O)N2CCC(Nc3ccc4c(c3)OCCO4)CC2)ccc1O`, for which the inhibition at 50 µM with Pseudomonas aeruginosa was found to be 0%; in the test with Klebsiella pneumoniae it was 23%; in the test with Staphylococcus aureus [1] it was 3%.
The matching figures for `CC(C)c1ccc(NC2CCN(C(=O)/C=C/c3ccc4c(c3)OCCCO4)CC2)cc1`: 14%, 54% and 0%.
Take `O=C(/C=C/c1ccc2c(c1)OCCCO2)N1CCC(Nc2ccccc2)CC1`: the inhibition at 50 µM in the test with Pseudomonas aeruginosa amounted to 6%; in the test on Klebsiella pneumoniae it was 40%; with Staphylococcus aureus [1] it was 0%.
The matching figures for `O=C(/C=C/c1ccc2c(c1)OCCO2)N1CCC(Nc2ccccc2)CC1`: 14%, 35% and 0%.
Take `O=C(/C=C/c1ccc2c(c1)OCCCO2)N1CCC(Nc2ccc(Cl)cc2)CC1`: the inhibition at 50 µM was 5% with Pseudomonas aeruginosa, 27% with Klebsiella pneumoniae and 0% in the test with Staphylococcus aureus [1].
Turning to `COc1ccc(NC2CCN(C(=O)/C=C/c3ccc4c(c3)OCCO4)CC2)cc1`, the figures for the inhibition at 50 µM with Pseudomonas aeruginosa, with Klebsiella pneumoniae and in the test on Staphylococcus aureus [1] were 7%, 40% and 30%, respectively.
For `O=C(/C=C/c1ccc2c(c1)OCCO2)N1CCC(Nc2ccc(Cl)cc2)CC1`, the inhibition at 50 µM in the test with Pseudomonas aeruginosa was determined as 10%; in the test on Klebsiella pneumoniae, 19%; with Staphylococcus aureus [1], 24%. The IC50 (commonly the concentration at which inhibition is half-maximal) with Staphylococcus aureus [2] is 60.5 µM.
With `COc1cc(/C=C/C(=O)N2CCC(Nc3ccc(OC(F)(F)F)cc3)CC2)ccc1O`, the figures for the inhibition at 50 µM in the test with Pseudomonas aeruginosa, in the test on Klebsiella pneumoniae and with Staphylococcus aureus [1] were 16%, 0% and 0%, respectively.
As to `COc1ccc(NC2CCN(C(=O)/C=C/c3ccccc3)CC2)cc1`, the values for the inhibition at 50 µM with Pseudomonas aeruginosa, in the test with Klebsiella pneumoniae and in the test with Staphylococcus aureus [1] were 7%, 21% and 15%, respectively.
As to `CC(C)c1ccc(NC2CCN(C(=O)/C=C/c3ccc4c(c3)OCO4)CC2)cc1`, the values for the inhibition at 50 µM in the test with Pseudomonas aeruginosa, in the test on Klebsiella pneumoniae and with Staphylococcus aureus [1] were 27%, 28% and 0%, respectively.
On to `COc1cc(/C=C/C(=O)N2CCC(Nc3ccccc3)CC2)ccc1O`, for which the inhibition at 50 µM came out at 20% with Pseudomonas aeruginosa, 37% in the test with Klebsiella pneumoniae and 8% with Staphylococcus aureus [1].
As to `COc1cc(/C=C/C(=O)N2CCC(Nc3cccc4ccccc34)CC2)ccc1O`, the inhibition at 50 µM in the test with Pseudomonas aeruginosa, in the test on Klebsiella pneumoniae and in the test on Staphylococcus aureus [1] was 0% throughout.
On to `COc1ccc(NC2CCN(C(=O)/C=C/c3ccc4c(c3)OCO4)CC2)cc1`, for which the inhibition at 50 µM was 0% in the test with Pseudomonas aeruginosa, 44% in the test with Klebsiella pneumoniae and 0% in the test on Staphylococcus aureus [1].
Consider `O=C(/C=C/c1ccccc1)N1CCC(Nc2ccc(Cl)cc2)CC1`, for which the inhibition at 50 µM with Pseudomonas aeruginosa was determined as 37%; with Klebsiella pneumoniae, 38%; with Staphylococcus aureus [1], 22%.
`COc1cc(/C=C/C(=O)N2CCC(Nc3ccc(C(C)C)cc3)CC2)ccc1O`: the inhibition at 50 µM with Pseudomonas aeruginosa was 25%; in the test with Klebsiella pneumoniae, 20%; with Staphylococcus aureus [1] it was 0%.
With `COc1cc(/C=C/C(=O)N2CCC(Nc3cccc(F)c3)CC2)ccc1O`, the inhibition at 50 µM in the test with Pseudomonas aeruginosa was determined as 4%; in the test with Klebsiella pneumoniae it was 29%; in the test on Staphylococcus aureus [1] it was 0%.
As for `COc1cc(/C=C/C(=O)N2CCC(Nc3ccc(C)cc3)CC2)ccc1O`, the results for the inhibition at 50 µM in the test on Pseudomonas aeruginosa, in the test with Klebsiella pneumoniae and in the test with Staphylococcus aureus [1] were 6%, 49% and 0%, respectively.
As for `CC(C)c1ccc(NC2CCN(C(=O)/C=C/c3ccccc3)CC2)cc1`, the inhibition at 50 µM amounted to 20% in the test on Pseudomonas aeruginosa, 27% with Klebsiella pneumoniae and 42% in the test on Staphylococcus aureus [1].
The matching figures for `COc1cc(/C=C/C(=O)N2CCC(Nc3ccc(F)cc3)CC2)ccc1O`: 0%, 0% and 0%.
As for `COc1cc(/C=C/C(=O)N2CCC(NCc3ccccc3)CC2)ccc1O`, the inhibition at 50 µM is 0% in the test with Pseudomonas aeruginosa, 41% in the test with Klebsiella pneumoniae and 0% in the test with Staphylococcus aureus [1].
Take `O=C(/C=C/c1ccc2c(c1)OCO2)N1CCC(Nc2ccccc2)CC1`: the inhibition at 50 µM with Pseudomonas aeruginosa was found to be 0%; with Klebsiella pneumoniae, 24%; with Staphylococcus aureus [1], 0%.
For `CC(C)c1ccc(NC2CCN(C(=O)/C=C/c3ccc4c(c3)OCCO4)CC2)cc1`, the inhibition at 50 µM amounted to 10% in the test with Pseudomonas aeruginosa, 29% with Klebsiella pneumoniae and 26% in the test on Staphylococcus aureus [1].
Taken in the same sequence, the figures for `COc1cc(/C=C/C(=O)N2CCC(Nc3cccc(Cl)c3)CC2)ccc1O` were 14%, 0% and 0%.
Consider `COc1ccc(NC2CCN(C(=O)/C=C/c3ccc4c(c3)OCCCO4)CC2)cc1`, for which the inhibition at 50 µM with Pseudomonas aeruginosa is 0%; in the test with Klebsiella pneumoniae it was 30%; in the test on Staphylococcus aureus [1], 0%. Further, the 50% inhibitory concentration (IC50) in the test on Staphylococcus aureus [2] came out at 50.1 µM.

These data come from ChEMBL document CHEMBL6092134, “N-acyl-4-arylaminopiperidines: Design and synthesis of a potential antimicrobial scaffold” (Bioorg Med Chem Lett, 2024).
